Article PMC9447987, “Long-term memory CD8^+ T cells specific for SARS-CoV-2 in individuals who received the BNT162b2 mRNA vaccine” (Nature Communications, 2022)

Experiments:
[1] = tested on: HLA-A*24:02-peptide complexes; test: Peptide–MHC Complex Dissociation Assay using RMA-S-A2402 cells; assay type: binding, human; conditions: for % Mean Fluoresence: Fig.7d; for stability of the HLA-A*24:02-peptide complex (in words): RMA-S-A2402 cells, 10 μM peptide, 0, 1, 2 and 4 h
[2] = tested on: HLA-A*24:02-restricted CD8+ T cells; assay type: cell-based, human; conditions: for number of S-QI9-specific T cell populations that effectively recognized the peptide / number of individuals whose S-QI9-specific T cells moderately recognized the peptide / number of individuals whose S-QI9-specific T cells uniformly recognized variant peptide and S-QI9 / number of individuals whose S-QI9-specific bulk T cells exhibited no or very weak recognition: 13 HLA-A*24:02+ individuals, C1R-A2402 pre-pulsed with 1 nM peptide
HLA-A*24:02 = HLA-A*24:02 (Homo sapiens, UniProt P04439, D101N/D140Y/D185E/E176V/E190D/F33S/G103R/G107R/I119L/I121M/I306V/K335N/L105A/L180Q/L300P/N151K/N90K/Q86E/Q94H/R106L/R138H/R89G/T104I/T345S/V100E/W191G/Y123F); test: HLA stabilization assay using RMA-S-A2402 cells; assay type: binding; conditions: for MFI, HLA-A2402 (APC), representative staining: RMA-S-A2402 cells, Suppl. Fig. 3d (for Fig. 7c), peptide(-) 11.3, 26 °C (Maximum) 24.0; for affinity for HLA-A*24:02, times weaker than that of S-QI9: approximately, peptide 0.03 to 10 μM
[3] = post-incubation 0 hour, replicate 1
[4] = post-incubation 0 hour, replicate 2
[5] = post-incubation 0 hour, replicate 3
[6] = post-incubation 1 hour, replicate 1
[7] = post-incubation 1 hour, replicate 2
[8] = post-incubation 1 hour, replicate 3
[9] = post-incubation 2 hour, replicate 1
[10] = post-incubation 2 hour, replicate 2
[11] = post-incubation 2 hour, replicate 3
[12] = post-incubation 4 hour, replicate 1
[13] = post-incubation 4 hour, replicate 2
[14] = post-incubation 4 hour, replicate 3

Sequence | % Mean Fluoresence [1, 3] [%] | % Mean Fluoresence [1, 4] [%] | % Mean Fluoresence [1, 5] [%] | % Mean Fluoresence [1, 6] [%] | % Mean Fluoresence [1, 7] [%] | % Mean Fluoresence [1, 8] [%] | % Mean Fluoresence [1, 9] [%] | % Mean Fluoresence [1, 10] [%] | % Mean Fluoresence [1, 11] [%] | % Mean Fluoresence [1, 12] [%] | % Mean Fluoresence [1, 13] [%] | % Mean Fluoresence [1, 14] [%] | stability of the HLA-A*24:02-peptide complex (in words) [1] | sensitivity of S-QI9-specific T cells for the peptide compared with the SARS-CoV-2 S-QI9 epitope (in words) [2] | number of S-QI9-specific T cell populations that effectively recognized the peptide [2] | MFI, HLA-A2402 (APC), representative staining (HLA-A*24:02) | affinity for HLA-A*24:02, times weaker than that of S-QI9 (HLA-A*24:02) | number of individuals whose S-QI9-specific T cells moderately recognized the peptide [2] | number of individuals whose S-QI9-specific T cells uniformly recognized variant peptide and S-QI9 [2] | number of individuals whose S-QI9-specific bulk T cells exhibited no or very weak recognition [2] | further results
MYVKWPWYV [HKU1] | 100 | 100 | 100 | 69.2 | 72.5 | 68.4 | 38.6 | 43 | 37.4 | 12.8 | 14 | 10 | weaker than that of the HLA-A*24:02-S-QI9 peptide complex | higher sensitivity | 13 | 49.8 | 10–30 times |  |  |  | 
NYIKWPWWV [NL63] | 100 | 100 | 100 | 18.2 | 44 | 7.4 | -22.6 | 35.4 | -0.6 | 18.3 | -7.8 | 2 | substantially weaker | much lower sensitivity |  | 16.2 |  | 7 | 2 | 4 | affinity for HLA-A*24:02 (in words) (HLA-A*24:02): substantially weaker
TYIKWPWWV [229E] | 100 | 100 | 100 | 44.6 | 48.7 | 47.1 | 19.2 | 17 | 16.5 | -1.1 | -0.2 | -1.9 | weaker than that of the HLA-A*24:02-HKU1 or HLA-A*24:02-OC43 peptide complexes | much lower sensitivity |  | 41.6 |  | 7 | 2 | 4 | 
YYVKWPWYV [OC43] | 100 | 100 | 100 | 70.4 | 82.2 | 77.7 | 54.3 | 54.5 | 58.1 | 20.6 | 25.6 | 22 | identical to that of the HLA-A*24:02-S-QI9 peptide complex | higher sensitivity | 13 | 45.9 | 10–30 times |  |  |  | 
